Here are results for 31 molecules from ChEMBL document CHEMBL4765312, “Capsaicin derivatives with nitrothiophene substituents: Design, synthesis and antibacterial activity against multidrug-resistant S. aureus” (Eur J Med Chem, 2020).

The test system of series [1] is Staphylococcus aureus. The series can be described thus: Antibacterial activity against Staphylococcus aureus Newman strain assessed as reduction in bacterial growth incubated for 16 to 18 hrs by two fold serial dilution method. The following applies: time 16-18 hrs. It is filed as functional.
In series [2] the test system is Staphylococcus aureus. Put plainly: Antibacterial activity against multidrug-resistant Staphylococcus aureus NRS1 assessed as reduction in bacterial growth incubated for 16 to 18 hrs by two fold serial dilution method. The following applies: time 16-18 hrs. The series is classed as functional.
Series [3] deals with Staphylococcus aureus. The series can be described thus: Antibacterial activity against multidrug-resistant Staphylococcus aureus NRS271 assessed as reduction in bacterial growth incubated for 16 to 18 hrs by two fold serial dilution method. The series is classed as functional. The conditions noted are these: time 16-18 hrs.
For series [4], the system named is Staphylococcus aureus. Put plainly: Antibacterial activity against mutidrug-resistant Staphylococcus aureus NRS100 assessed as reduction in bacterial growth incubated for 16 to 18 hrs by two fold serial dilution method. The series is classed as functional. The following applies: time 16-18 hrs.
Series [5] concerns Staphylococcus aureus. Put plainly: Antibacterial activity against multidrug-resistant Staphylococcus aureus NRS70 assessed as reduction in bacterial growth incubated for 16 to 18 hrs by two fold serial dilution method. The series is classed as functional. The conditions noted are these: time 16-18 hrs.
Series [6] relates to Staphylococcus aureus. Put plainly: Antibacterial activity against multidrug-resistant Staphylococcus aureus NRS108 assessed as reduction in bacterial growth incubated for 16 to 18 hrs by two-fold serial dilution method. It is filed as functional. The conditions noted are these: time 16-18 hrs.
Series [7] is described as follows: Cytotoxicity against human HEK293T cells assessed as reduction in cell viability measured after 48 hrs by MTT assay. The series is classed as cell-based, HEK-293T. Background: Tetrazolium dyes change colour on reduction, which living cells bring about.
Series [8] deals with Staphylococcus aureus. Put plainly: Potency index, ratio of vancomycin MIC to test compound MIC for antibacterial activity against multidrug-resistant Staphylococcus aureus NRS70 assessed as reduction in bacterial growth incubated for 16 to 18 hrs by two fold serial dilution method. It is filed as functional. The following applies: time 16-18 hrs.
In series [9] the test system is Staphylococcus aureus. The series can be described thus: Potency index, ratio of vancomycin MIC to test compound MIC for antibacterial activity against multidrug-resistant Staphylococcus aureus NRS271 assessed as reduction in bacterial growth incubated for 16 to 18 hrs by two fold serial dilution method. It is filed as functional. The conditions noted are these: time 16-18 hrs.

The test system of series [10] is Staphylococcus aureus. The series can be described thus: Potency index, ratio of vancomycin MIC to test compound MIC for antibacterial activity against multidrug-resistant Staphylococcus aureus NRS108 assessed as reduction in bacterial growth incubated for 16 to 18 hrs by two-fold serial dilution method. It is filed as functional. The conditions noted are these: time 16-18 hrs.

Series [11] concerns Staphylococcus aureus. Put plainly: Potency index, ratio of vancomycin MIC to test compound MIC for antibacterial activity against multidrug-resistant Staphylococcus aureus NRS1 assessed as reduction in bacterial growth incubated for 16 to 18 hrs by two fold serial dilution method. The series is classed as functional. The following applies: time 16-18 hrs.
The subject of series [12] is Staphylococcus aureus. The series can be described thus: Potency index, ratio of vancomycin MIC to test compound MIC for antibacterial activity against mutidrug-resistant Staphylococcus aureus NRS100 assessed as reduction in bacterial growth incubated for 16 to 18 hrs by two fold serial dilution method. The series is classed as functional. The conditions noted are these: time 16-18 hrs.

In series [13] the test system is Staphylococcus aureus. The series can be described thus: Antibiofilm activity against Staphylococcus aureus Newman strain assessed as biofilm formation at 0.78 ug/ml after 24 hrs by crystal violet staining based assay relative to control. The series is classed as functional. The conditions noted are these: dose 0.78 µg/ml.
Series [14] deals with Staphylococcus aureus. The series can be described thus: Bactericidal activity against Staphylococcus aureus Newman strain assessed as reduction in bacterial colonies formation after 24 hrs by crystal violet staining based assay. It is filed as functional, organism-based.

≈ marks a conversion by molar mass, not a printed value. Calls of active or inactive are those of the source. Where only a bound is given, the exact number is not on record here.

As usually defined, the MIC is the smallest concentration in the dilution series that meets the test's criterion for growth inhibition. Turning to `COc1cc(CNC(=O)c2ncc([N+](=O)[O-])n2C)ccc1OC(=O)c1ccc([N+](=O)[O-])s1`, in series [1], the MIC is above 50 µg/mL.
On the same count and under the same terms, in the case of `O=C(NCc1ccc(Oc2ccc([N+](=O)[O-])s2)cc1)c1ccc([N+](=O)[O-])s1` it was 3.13 µg/mL (≈ 7.72 µM); in that of `COc1cc(CNC(=O)c2ccc([N+](=O)[O-])s2)ccc1O`, above 50 µg/mL.
The same measure, in the same setting: in the case of `COc1cc(CNC(=O)c2ccc([N+](=O)[O-])s2)ccc1OC(=O)/C=C/c1ccc([N+](=O)[O-])s1` it was above 50 µg/mL.
As a reminder, the CC50 is the concentration at which the toxic effect on the cells reaches its halfway point. For the molecule `O=C(NCc1ccc(OC(=O)c2ccc([N+](=O)[O-])s2)cc1)c1ccc([N+](=O)[O-])s1`, the MIC in series [2] turned out to be 0.78 µg/mL (≈ 1.8 µM); in [3], 1.56 µg/mL (≈ 3.6 µM); in [4], 3.13 µg/mL (≈ 7.22 µM); in [5] it was 0.78 µg/mL (≈ 1.8 µM); in series [1], 0.78 µg/mL (≈ 1.8 µM); in [6], 3.13 µg/mL (≈ 7.22 µM). Further, the CC50 at 48 h in [7] is 251 µg/mL (≈ 579 µM).
Turning to `COc1cc(CNC(=O)c2ccc([N+](=O)[O-])s2)ccc1OC(=O)c1ccc([N+](=O)[O-])o1`, in series [1], the MIC was 6.25 µg/mL (≈ 14 µM).
Consider `O=C(NCc1ccc(OC(=O)c2ccc([N+](=O)[O-])s2)c(F)c1)c1ccc([N+](=O)[O-])s1`, for which the MIC in series [1] is 3.13 µg/mL (≈ 6.93 µM).
Take `COc1cc(CNC(=O)CCCC/C=C/C(C)C)ccc1O` [CAPSAICIN]: the MIC in series [1] was above 50 µg/mL.
Consider `O=C(NCc1ccc(-c2noc(-c3ccc([N+](=O)[O-])s3)n2)cc1)c1ccc([N+](=O)[O-])s1`, for which the Ratio in series [8], in [9], in series [10], in series [11] and in [12] was 2 in each case. Moreover, the MIC in series [2] amounted to 0.39 µg/mL (≈ 0.853 µM); in series [3], 0.2 µg/mL (≈ 0.437 µM); in [4] it was 0.39 µg/mL (≈ 0.853 µM); in series [5] it was 0.2 µg/mL (≈ 0.437 µM); in series [1], 0.78 µg/mL (≈ 1.71 µM); in series [6] it was 0.2 µg/mL (≈ 0.437 µM). Besides, the CC50 at 48 h in series [7] was 126 µg/mL (≈ 276 µM). Further, in series [13], the Activity is reported as 80%. In [14], the outcome was Active.
Consider `COc1cc(CNC(=O)c2cccc([N+](=O)[O-])c2)ccc1OC(=O)c1ccc([N+](=O)[O-])s1`, for which, in [1], the MIC is above 50 µg/mL.
With `Cc1cc(CNC(=O)c2ccc([N+](=O)[O-])s2)ccc1OC(=O)c1ccc([N+](=O)[O-])s1`, the MIC in series [2] is 0.39 µg/mL (≈ 0.872 µM); in [3], 0.39 µg/mL (≈ 0.872 µM); in [4], 0.39 µg/mL (≈ 0.872 µM); in [5], 0.39 µg/mL (≈ 0.872 µM); in series [1] it was 0.39 µg/mL (≈ 0.872 µM); in [6] it was 1.56 µg/mL (≈ 3.49 µM). The CC50 at 48 h in series [7] came to 168 µg/mL (≈ 375 µM).
In the case of `O=C(NCc1ccc(OC(=O)c2ccc([N+](=O)[O-])s2)c(Cl)c1)c1ccc([N+](=O)[O-])s1`, the MIC in [2] stood at 0.78 µg/mL (≈ 1.67 µM); in series [3] it was 1.56 µg/mL (≈ 3.33 µM); in [4], 3.13 µg/mL (≈ 6.69 µM); in [5], 0.39 µg/mL (≈ 0.834 µM); in series [1], 0.78 µg/mL (≈ 1.67 µM); in [6], 1.56 µg/mL (≈ 3.33 µM).
On to `COc1cc(CNC(=O)c2ccc([N+](=O)[O-])s2)cc(OC)c1OC(=O)c1ccc([N+](=O)[O-])s1`, for which, in series [1], the MIC came out at 3.13 µg/mL (≈ 6.34 µM).
On to `NC[C@H]1O[C@H](O[C@H]2[C@H](O)[C@@H](O[C@H]3O[C@H](CO)[C@@H](O)[C@H](N)[C@H]3O)[C@H](N)C[C@@H]2N)[C@H](O)[C@@H](O)[C@@H]1O` [KANAMYCIN], for which the MIC was above 50 µg/mL in [2]; 3.13 µg/mL (≈ 6.46 µM) in series [3]; 1.56 µg/mL (≈ 3.22 µM) in [4]; above 50 µg/mL in [5]; 3.13 µg/mL (≈ 6.46 µM) in series [1]; above 50 µg/mL in series [6].
On to `O=C(NCc1ccc(OC(=O)c2ccc([N+](=O)[O-])s2)c(Br)c1)c1ccc([N+](=O)[O-])s1`, for which the MIC in [1] turned out to be 6.25 µg/mL (≈ 12.2 µM).
For `COc1cc(CNC(=O)c2ccc([N+](=O)[O-])s2)ccc1OC(=O)c1ccc([N+](=O)[O-])s1`, the MIC in series [2] worked out at 0.78 µg/mL (≈ 1.68 µM); in [3] it was 0.78 µg/mL (≈ 1.68 µM); in [4], 0.78 µg/mL (≈ 1.68 µM); in series [5] it was 0.78 µg/mL (≈ 1.68 µM); in [1] it was 1.56 µg/mL (≈ 3.37 µM); in [6] it was 1.56 µg/mL (≈ 3.37 µM). In addition, in series [7], the CC50 at 48 h is 61 µg/mL (≈ 132 µM).
Take `COc1cc(CNC(=O)c2ccc([N+](=O)[O-])s2)ccc1OC(=O)c1ncc([N+](=O)[O-])n1C`: in series [1], the MIC was above 50 µg/mL.
`CN[C@H](CC(C)C)C(=O)N[C@H]1C(=O)N[C@@H](CC(N)=O)C(=O)N[C@H]2C(=O)N[C@H]3C(=O)N[C@H](C(=O)N[C@H](C(=O)O)c4cc(O)cc(O)c4-c4cc3ccc4O)[C@H](O)c3ccc(c(Cl)c3)Oc3cc2cc(c3O[C@@H]2O[C@H](CO)[C@@H](O)[C@H](O)[C@H]2O[C@H]2C[C@](C)(N)[C@H](O)[C@H](C)O2)Oc2ccc(cc2Cl)[C@H]1O` [VANCOMYCIN]: the MIC turned out to be 1.56 µg/mL (≈ 1.08 µM) in series [2]; 0.78 µg/mL (≈ 0.538 µM) in series [3]; 0.78 µg/mL (≈ 0.538 µM) in series [4]; 0.39 µg/mL (≈ 0.269 µM) in series [5]; 0.78 µg/mL (≈ 0.538 µM) in [1]; 0.78 µg/mL (≈ 0.538 µM) in series [6]. For the same molecule, the result in [14] was inactive.
With `CN(Cc1ccc(N(C)C(=O)c2ccc([N+](=O)[O-])s2)cc1)C(=O)c1ccc([N+](=O)[O-])s1`, in [1], the MIC stood at 6.25 µg/mL (≈ 13.6 µM).
With `COc1cc(OC(=O)c2ccc([N+](=O)[O-])s2)ccc1CNC(=O)c1ccc([N+](=O)[O-])s1`, the MIC was found to be 0.78 µg/mL (≈ 1.68 µM) in [2]; 0.78 µg/mL (≈ 1.68 µM) in [3]; 0.78 µg/mL (≈ 1.68 µM) in series [4]; 0.78 µg/mL (≈ 1.68 µM) in series [5]; 1.56 µg/mL (≈ 3.37 µM) in series [1]; 1.56 µg/mL (≈ 3.37 µM) in series [6].
For `COc1cc(CNC(=O)c2ccc([N+](=O)[O-])s2)ccc1OC(=O)c1cccs1`, the MIC in [1] is above 50 µg/mL.
The same measure, in the same setting: for `COc1cc(CNC(=O)c2ccc([N+](=O)[O-])o2)ccc1OC(=O)c1ccc([N+](=O)[O-])o1` the value was 3.13 µg/mL (≈ 7.26 µM).
On the same count and under the same terms, in the case of `O=C(NCc1ccc(OC(=O)c2ccc([N+](=O)[O-])s2)c(C(F)(F)F)c1)c1ccc([N+](=O)[O-])s1` it was 3.13 µg/mL (≈ 6.24 µM); in that of `O=C(NCc1ccc(NC(=O)c2ccc([N+](=O)[O-])s2)cc1)c1ccc([N+](=O)[O-])s1`, above 50 µg/mL; in that of `COc1cc(CNC(=O)c2ccc([N+](=O)[O-])s2)ccc1OC(=O)c1cccc([N+](=O)[O-])c1`, above 50 µg/mL.
On the same count and under the same terms, for `O=C(Nc1ccc([N+](=O)[O-])s1)c1ccc(CNC(=O)c2ccc([N+](=O)[O-])s2)cc1` the value was above 50 µg/mL.
On to `O=C(NCc1ccc(OC(=O)c2ccc([N+](=O)[O-])s2)c([N+](=O)[O-])c1)c1ccc([N+](=O)[O-])s1`, for which the MIC in series [1] was determined as 6.25 µg/mL (≈ 13.1 µM).
For `COc1cc(CNC(=O)c2ccc([N+](=O)[O-])o2)ccc1OC(=O)c1ccc([N+](=O)[O-])s1`, the MIC in [1] came to 3.13 µg/mL (≈ 7 µM).
Same read-out and setting: for `CCCCCCCCCC(=O)NCc1ccc(OC(=O)c2ccc([N+](=O)[O-])s2)c(OC)c1` the value was above 50 µg/mL; for `COc1cc(CNC(=O)/C=C/c2ccc([N+](=O)[O-])s2)ccc1OC(=O)c1ccc([N+](=O)[O-])s1`, above 50 µg/mL; for `COc1cc(CNC(=O)c2cccs2)ccc1OC(=O)c1ccc([N+](=O)[O-])s1`, above 50 µg/mL.
